Measurements published in patent US6632447B1, “Method for chemoprevention of prostate cancer” (The University of Tennessee Research Corporation, priority 1998, dated 2003).

Tests used:
[1] = tested on: TRAMP mouse ventral prostate; assay: Histological examination (H&E) of ventral prostate tissue of TRAMP mice; type: in vivo; details: toremifene-treated 30-week-old TRAMP mouse vs placebo-treated 16-week-old
Description: 1) Prostate wholemount analysis is serially performed to detect changes in prostate ductal morphology over time with and without treatment; examples are shown in FIG. 2. Tissue sections are evaluated histologically by H&E and Masson-trichome standard staining. The emergence of PIN is assessed and graded (I-mild to III-severe).
Tumors from the placebo and high toremifene-treated groups taken at the time of palpation were evaluated histologically. FIG. 2A is an H&E section of the ventral prostate of a 17-week-old normal adult mouse.

[2] = tested on: human stromal fibroblast cells; assay: TGF synthesis in human stromal fibroblast cells; type: cell-based
[3] = tested on: prostate tumor in TRAMP mice; assay: Prostatic wholemount, histology and large T antigen immunohistochemistry in TRAMP mice; type: in vivo, mouse; details: vs placebo at 15 weeks
Description: This present study focuses on the histological and molecular changes associated with development of prostate tumor in control animals and the mechanism of toremifene chemopreventive action with TRAMP animals which are bred, screened and treated with sustained-release drug pellets. At predetermined times, groups of 5 animals were sacrificed and their prostates were removed for analysis. The prostate glands were evaluated for the presence of tumor by histology, wholemount dissections, and large T antigen immunohistochemistry. To date, the Placebo and the Toremifene treatments have been completed for the 7, 10, 15 and 20 week time-points and the results are described below.
Prostatic wholemounts for 7, 10, 15, and 20 weeks for the various groups have been completed. […] By 20 weeks, there is a striking delay in tumor occurrence in the Toremifene treated group up to 35 weeks FIG. 4). […] For histological evaluation, tissue samples were fixed, processed and paraffin embedded. Sections ([…]) were cut and stained by routine H&E method.

[4] = tested on: prostate intraepithelial neoplasia (PIN); assay: Phase IIa prostate cancer chemoprevention human clinical trial (PIN regression); type: in vivo; details: 60 mg daily for 4 months
Description: A Phase IIa, open labeled non randomized single center study with 21 human subjects was conducted. […] After 4 months, patients are rebiopsied (8 biopsies) and PIN status is reassessed. Twenty-one patients entered the study and sixteen patients have completed the study.

[5] = tested on: prostate cancer in the ventral prostate of TRAMP mice; assay: Chemopreventive activity of toremifene pellets in TRAMP transgenic mice (palpable tumor formation); type: in vivo, mouse
Excerpt: The study of prostate cancer chemoprevention has been hindered by the lack of appropriate animal models. The recent development of the transgenic adenocarcinoma mouse prostate (TRAMP) model enables the study of chemoprevention. In the TRAMP model, which is described in Greenberg et al., AProstate cancer in a transgenic mouse, Proc. Natl Acad. Sci. USA, 1995, Vol. 92, pages 3439-3443, the PB-SV40 large T antigen (PB-Tag) transgene is expressed specifically in the epithelial cells of the murine prostate. […]
A study was undertaken to test the efficacy of chemopreventive agents in TRAMP transgenic animals (PBTag X FVBwt) (provided by Dr. Norman Greenberg, Baylor College of Medicine, TX). […] The efficacy of the treatment was measured by the absence of palpable tumor formation. The murine prostate tumors were harvested and evaluated by molecular and histological techniques.

## CN(C)CCOc1ccc(/C(=C(/CCCl)c2ccccc2)c2ccccc2)cc1 [Toremifene, toremifene]
[1]
  glandular architecture of the prostate (H&E): retains much of the normal glandular architecture
  mitotic index: much lower than that for the placebo-treated animal
[2]
  TGF? synthesis: significantly induce TGF? synthesis
[3]
  ductal development and tissue differentiation (H&E histology): inhibited the ductal development and tissue differentiation
[4]
  serum PSA, serum free testosterone, serum total testosterone and serum estradiol: remained in the normal ranges
[4]; 16 patients completed
  patients with regression of PIN to benign or atrophic prostate tissue (complete response): 12 out of 16
[5]; high and low toremifene groups versus placebo
  delay of time to tumors in 25% of the animals: 7-8 weeks
[5]; high and low toremifene groups, placebo week 23
  week by which tumors were palpable in 25% of the animals: 30-31 weeks
